Measured values: patent US9901111B2, “Taste-improving peptide” (Takasago International Corporation, priority 2011, dated 2018)

Test: Sensory evaluation of sourness-masking effect in yoghurt drink by five special panelists
Conditions: for Evaluation Result (sourness-masking effect): score 0-3, stored at 10° C. for 10 days
Protocol: The peptide mixture obtained in the above procedure 1 was centrifuged (20,000 G) to obtain an aqueous layer. The aqueous layer was treated with UF membranes of 20 nm, 5 kDa and 1 kDa, respectively, and permeate solutions were collected. Each permeate solution obtained through the UF membranes or the peptide mixture before treatment were added to a commercially available yoghurt drink. After the yoghurt drink was stored at 10° C. for 10 days, five special panelists conducted sensory evaluation regarding a sourness-masking effect. Note that each sample was prepared such that the addition amount is 0.1% calculated in terms of the peptide mixture. A commercially available yoghurt drink without addition was used as control. Evaluation was performed by scoring from 0 to 3 shown in Table 1 at 0.5 point intervals.
(§1) In the same manner as in the above procedure 2, the obtained 13 fractions were added to a commercially available yoghurt drink, respectively. After the yoghurt drink was stored at 10° C. for 10 days, five special panelists conducted sensory evaluation regarding a sourness-masking effect. Each sample was prepared such that the addition amount is 0.1% calculated in terms of the peptide mixture. The evaluation method is the same as in the above procedure 2.
as §1, with “four” for “13”
The five kinds of peptide identified in Example 1 and phenylalanine were added to a commercially available yoghurt drink, respectively. After the yoghurt drink was stored at 10° C. for 10 days, five special panelists conducted sensory evaluation regarding a sourness-masking effect. The peptide mixture obtained in Example 1-1 was added in an amount of 0.1%, the peptides and phenylalanine obtained in Example 1-5 were added in an amount of 20 ppb and the mixture of VP+LLL was added in an amount of 10 ppb each. The evaluation method was the same as in Example 1-2.
VP and LLL were mixed in the mixture ratio within the range from 1:9 to 9:1 and each mixture was added to a commercially available yoghurt drink in an amount of 0.01 ppm. After the yoghurt drink was stored at 10° C. for 10 days, five special panelists conducted sensory evaluation regarding a sourness-masking effect. The evaluation method is the same as in the Example 1-2.
VP, LLL and the mixture of equal parts of VP and LLL were added to a commercially available yoghurt drink in an amount of 0.001 ppm, 0.01 ppm and 0.1 ppm, respectively. After the yoghurt drink was stored at 10° C. for 10 days, five special panelists conducted sensory evaluation regarding a sourness-masking effect. The evaluation method is the same as in the Example 1-2.

[1] = Example 4, addition concentration 0.001 ppm
[2] = Example 4, addition concentration 0.01 ppm
[3] = Example 4, addition concentration 0.1 ppm

N[C@@H](Cc1ccccc1)C(=O)O [F, phenylalanine, reference compound]
Evaluation Result (sourness-masking effect) (Example 2, added at 20 ppb): 0.1

Leu-Leu-Leu [LLL]
sourness-masking effect, in words (Example 2, added at 20 ppb): remarkable sourness-masking effect
Evaluation Result (sourness-masking effect) (Example 2, added at 20 ppb): 1.4
Evaluation Result (sourness-masking effect) (Example 3, added at 0.01 ppm): 1.3
Evaluation Result (sourness-masking effect) [1]: 0.3
Evaluation Result (sourness-masking effect) [2]: 1.4
Evaluation Result (sourness-masking effect) [3]: 1.5

Leu-Leu-Leu-Leu (LLLL; printed: Leu-Leu-Leu-Leu) [reference compound]
Evaluation Result (sourness-masking effect) (Example 2, added at 20 ppb): 0.3

Leu-Pro-Pro [LPP, reference compound]
Evaluation Result (sourness-masking effect) (Example 2, added at 20 ppb): 0.3

Val-Pro [VP]
sourness-masking effect, in words (Example 2, added at 20 ppb): remarkable sourness-masking effect
Evaluation Result (sourness-masking effect) (Example 2, added at 20 ppb): 1.3
Evaluation Result (sourness-masking effect) (Example 3, added at 0.01 ppm): 1.4
Evaluation Result (sourness-masking effect) [1]: 0.2
Evaluation Result (sourness-masking effect) [2]: 1.5
Evaluation Result (sourness-masking effect) [3]: 1.5

Val-Pro-Pro [VPP, reference compound]
Evaluation Result (sourness-masking effect) (Example 2, added at 20 ppb): 0.2
